Where two headings read alike, the source gives them in different places.
Columns and labels:
[1] = biological target: Nav1.8 (Homo sapiens, UniProt Q9Y5Y9); conditions: read-out: TTX IC-50; cited from earlier work
[2] = biological target: Nav1.3 (Homo sapiens, UniProt Q9NY46); conditions: read-out: TTX IC-50; cited from earlier work
[3] = biological target: Nav1.2 (Homo sapiens, UniProt Q99250); conditions: read-out: TTX IC-50; cited from earlier work
[4] = biological target: Nav1.6 (Homo sapiens, UniProt Q9UQD0); conditions: read-out: TTX IC-50; cited from earlier work
[5] = biological target: Nav1.9 (Homo sapiens, UniProt Q9UI33); conditions: read-out: TTX IC-50; cited from earlier work
Chain of Nav1.9 (Q9UI33 whole entry, looked up): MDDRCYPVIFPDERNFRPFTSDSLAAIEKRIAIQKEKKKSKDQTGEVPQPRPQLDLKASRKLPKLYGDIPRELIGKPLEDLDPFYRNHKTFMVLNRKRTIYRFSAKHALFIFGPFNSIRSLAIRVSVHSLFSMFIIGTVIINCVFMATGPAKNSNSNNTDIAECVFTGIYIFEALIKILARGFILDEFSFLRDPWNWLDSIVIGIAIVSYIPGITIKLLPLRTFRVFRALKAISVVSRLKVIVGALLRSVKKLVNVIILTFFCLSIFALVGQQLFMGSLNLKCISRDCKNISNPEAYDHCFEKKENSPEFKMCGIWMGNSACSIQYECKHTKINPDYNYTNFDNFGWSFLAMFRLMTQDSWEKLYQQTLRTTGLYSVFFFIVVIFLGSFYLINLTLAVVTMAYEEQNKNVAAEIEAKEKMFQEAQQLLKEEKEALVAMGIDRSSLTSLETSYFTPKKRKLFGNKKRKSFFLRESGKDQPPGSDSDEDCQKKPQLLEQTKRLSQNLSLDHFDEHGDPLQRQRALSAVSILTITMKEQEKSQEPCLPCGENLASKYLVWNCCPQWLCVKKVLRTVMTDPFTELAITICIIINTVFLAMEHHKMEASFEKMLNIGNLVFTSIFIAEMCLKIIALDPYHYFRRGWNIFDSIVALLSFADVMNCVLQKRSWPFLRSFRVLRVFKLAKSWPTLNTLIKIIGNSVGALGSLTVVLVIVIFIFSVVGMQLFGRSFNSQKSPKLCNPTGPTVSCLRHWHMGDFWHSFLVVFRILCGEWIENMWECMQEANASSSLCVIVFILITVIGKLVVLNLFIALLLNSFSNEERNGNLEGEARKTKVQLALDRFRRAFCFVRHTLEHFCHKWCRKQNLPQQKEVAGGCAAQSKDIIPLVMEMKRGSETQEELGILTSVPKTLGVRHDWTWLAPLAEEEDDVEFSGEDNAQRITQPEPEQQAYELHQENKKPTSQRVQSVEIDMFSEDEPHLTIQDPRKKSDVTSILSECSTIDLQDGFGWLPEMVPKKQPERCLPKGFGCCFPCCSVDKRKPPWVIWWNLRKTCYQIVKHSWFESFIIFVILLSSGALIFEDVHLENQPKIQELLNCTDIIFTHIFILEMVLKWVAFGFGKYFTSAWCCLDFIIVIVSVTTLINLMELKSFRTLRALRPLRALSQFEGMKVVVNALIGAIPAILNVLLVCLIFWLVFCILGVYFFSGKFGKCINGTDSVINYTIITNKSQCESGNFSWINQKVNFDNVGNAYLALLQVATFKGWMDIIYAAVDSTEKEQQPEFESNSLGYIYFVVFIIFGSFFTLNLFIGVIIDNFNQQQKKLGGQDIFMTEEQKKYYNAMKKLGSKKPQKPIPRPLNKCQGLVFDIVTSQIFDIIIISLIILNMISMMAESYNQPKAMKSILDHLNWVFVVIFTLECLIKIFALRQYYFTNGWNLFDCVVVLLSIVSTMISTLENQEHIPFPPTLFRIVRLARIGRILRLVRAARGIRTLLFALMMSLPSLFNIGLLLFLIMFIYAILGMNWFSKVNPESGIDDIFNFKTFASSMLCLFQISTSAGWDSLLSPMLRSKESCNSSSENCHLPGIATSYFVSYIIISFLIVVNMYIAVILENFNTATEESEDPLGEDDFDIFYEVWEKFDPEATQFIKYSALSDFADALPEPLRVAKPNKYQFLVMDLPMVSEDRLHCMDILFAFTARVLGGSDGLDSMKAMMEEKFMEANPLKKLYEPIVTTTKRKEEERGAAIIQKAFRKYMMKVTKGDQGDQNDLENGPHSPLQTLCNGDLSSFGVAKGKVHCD

[6] = biological target: Nav1.1 (Homo sapiens, UniProt P35498); conditions: read-out: TTX IC-50; cited from earlier work
[7] = biological target: T1, hSCN3A (Homo sapiens, UniProt Q9NY46); assay: SCN3A inhibitory activity in HEK cells stably expressing hSCN3A (whole-cell patch clamp / radiotracer efflux HTS); type: cell-based
T1 construct: expressed in transfected cells
T1 sequence (Q9NY46 whole entry): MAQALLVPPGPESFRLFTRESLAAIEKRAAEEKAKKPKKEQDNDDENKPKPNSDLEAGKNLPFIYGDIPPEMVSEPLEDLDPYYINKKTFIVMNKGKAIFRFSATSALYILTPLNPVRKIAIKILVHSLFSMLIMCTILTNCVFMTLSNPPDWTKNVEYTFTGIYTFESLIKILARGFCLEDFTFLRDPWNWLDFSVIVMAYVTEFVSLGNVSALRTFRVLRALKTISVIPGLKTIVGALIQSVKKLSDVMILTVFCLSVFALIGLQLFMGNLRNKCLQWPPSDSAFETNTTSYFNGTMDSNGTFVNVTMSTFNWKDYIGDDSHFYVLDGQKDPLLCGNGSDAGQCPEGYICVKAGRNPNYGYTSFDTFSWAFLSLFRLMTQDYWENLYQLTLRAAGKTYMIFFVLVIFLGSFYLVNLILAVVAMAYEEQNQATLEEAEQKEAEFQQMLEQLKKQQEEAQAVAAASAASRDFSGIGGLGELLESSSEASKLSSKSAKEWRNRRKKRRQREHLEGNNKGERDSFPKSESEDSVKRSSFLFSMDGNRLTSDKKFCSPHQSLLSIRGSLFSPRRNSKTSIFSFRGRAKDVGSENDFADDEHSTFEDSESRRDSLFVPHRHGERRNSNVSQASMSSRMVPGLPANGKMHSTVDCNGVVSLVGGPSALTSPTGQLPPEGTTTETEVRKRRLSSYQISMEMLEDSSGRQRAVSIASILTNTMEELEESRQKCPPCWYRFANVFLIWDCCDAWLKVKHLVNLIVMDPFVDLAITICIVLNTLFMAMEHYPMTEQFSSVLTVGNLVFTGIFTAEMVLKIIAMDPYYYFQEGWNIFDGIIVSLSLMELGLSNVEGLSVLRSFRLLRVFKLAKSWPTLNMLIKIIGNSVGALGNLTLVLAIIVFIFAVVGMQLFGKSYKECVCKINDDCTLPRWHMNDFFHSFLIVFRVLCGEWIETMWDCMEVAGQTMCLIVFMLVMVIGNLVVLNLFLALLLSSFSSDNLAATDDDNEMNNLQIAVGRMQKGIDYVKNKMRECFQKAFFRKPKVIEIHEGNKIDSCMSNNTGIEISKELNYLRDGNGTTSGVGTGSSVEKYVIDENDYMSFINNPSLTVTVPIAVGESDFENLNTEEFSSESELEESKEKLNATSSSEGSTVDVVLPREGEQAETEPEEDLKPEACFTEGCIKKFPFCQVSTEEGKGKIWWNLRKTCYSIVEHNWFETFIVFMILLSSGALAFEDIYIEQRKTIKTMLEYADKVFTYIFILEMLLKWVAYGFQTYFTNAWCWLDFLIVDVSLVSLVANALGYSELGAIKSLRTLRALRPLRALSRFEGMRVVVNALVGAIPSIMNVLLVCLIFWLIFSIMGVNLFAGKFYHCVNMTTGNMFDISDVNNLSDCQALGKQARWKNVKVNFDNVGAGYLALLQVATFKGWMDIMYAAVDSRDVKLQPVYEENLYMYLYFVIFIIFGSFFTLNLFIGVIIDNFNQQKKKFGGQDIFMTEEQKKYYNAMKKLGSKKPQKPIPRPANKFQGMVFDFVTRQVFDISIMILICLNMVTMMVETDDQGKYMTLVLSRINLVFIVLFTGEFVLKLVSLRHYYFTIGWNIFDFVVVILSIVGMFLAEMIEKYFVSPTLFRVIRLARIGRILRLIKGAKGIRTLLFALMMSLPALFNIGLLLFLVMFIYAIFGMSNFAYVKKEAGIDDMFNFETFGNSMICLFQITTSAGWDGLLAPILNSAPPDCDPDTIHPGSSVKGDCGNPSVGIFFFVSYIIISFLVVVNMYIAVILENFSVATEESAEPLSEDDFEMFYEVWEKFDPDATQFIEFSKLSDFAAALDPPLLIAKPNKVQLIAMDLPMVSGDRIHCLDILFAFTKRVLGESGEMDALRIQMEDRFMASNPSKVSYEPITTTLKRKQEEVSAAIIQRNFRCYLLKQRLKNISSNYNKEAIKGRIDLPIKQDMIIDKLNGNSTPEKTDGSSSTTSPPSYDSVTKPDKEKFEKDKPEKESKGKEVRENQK

[8] = 'as little as only'; cited from earlier work
[9] = HEK cells stably transfected with hSCN3A, read-out: SCN3A Inhibitory Activity

Chain of Nav1.3 (Q9NY46 whole entry, looked up): as the sequence (Q9NY46 whole entry) above

SMILES: NC1=N[C@H](O)[C@H]2[C@H]3O[C@]4(O)O[C@@H]([C@@H](O)[C@@]2(N1)[C@@H]4O)[C@]3(O)CO [TTX, tetrodotoxin]
- IC50 [1]: 50000 nM
- IC50 [2]: 15 nM
- IC50 [3]: 10 nM
- IC50 [4]: 6 nM
- IC50 [5]: 1000 nM
- IC50 [6]: 10 nM

SMILES: CN(CCOc1ccc(C(C)(C)C)cc1)S(=O)(=O)c1ccc(S(=O)(=O)Nc2nccs2)cc1 [Compound 35, Benzene-1,4-disulfonic acid 1-{[2-(4-tert-butyl-phenoxy)-ethyl]-methyl-amide} 4-thiazol-2-ylamide]
- IC50 [7, 9]: 100 to 500 nM

SMILES: CN(CCc1ccccc1)S(=O)(=O)c1ccc(S(=O)(=O)Nc2nccs2)cc1 [Compound 47, Benzene-1,4-disulfonic acid 1-(methyl-phenethyl-amide) 4-thiazol-2-ylamide]
- IC50 [7, 9]: > 1000 nM

SMILES: O=S(=O)(NCC1(Oc2ccc(Cl)cc2)CCC1)c1ccc(S(=O)(=O)Nc2nccs2)cc1 [Compound 17, Benzene-1,4-disulfonic acid 1-{[1-(4-chloro-phenoxy)-cyclobutylmethyl]-amide} 4-thiazol-2-ylamide]
- IC50 [7, 9]: < 100 nM

SMILES: O=S(=O)(NCCOc1ccc(Cl)cc1F)c1ccc(S(=O)(=O)Nc2nccs2)cc1 [Compound 34, Benzene-1,4-disulfonic acid 1-{[2-(4-chloro-2-fluoro-phenoxy)-ethyl]-amide} 4-thiazol-2-ylamide]
- IC50 [7, 9]: 100 to 500 nM

SMILES: NCC1(CC(=O)O)CCCCC1 [gabapentin]
- patients respond to gabapentin treatment for neuropathic pain [8]: 30%

SMILES: O=S(=O)(Nc1ncc(Cl)s1)c1ccc(S(=O)(=O)N2CC(=Cc3ccc(Cl)c(Cl)c3)C2)cc1 [Compound 28, N-(5-chloro-thiazol-2-yl)-4-[3-(3,4-dichloro-benzylidene)-azetidine-1-sulfonyl]-benzenesulfonamide]
- IC50 [7, 9]: 100 to 500 nM

SMILES: O=S(=O)(Nc1nccs1)c1ccc(S(=O)(=O)N2CCC(Cc3ccc(Cl)cc3)CC2)cc1 [Compound 29, 4-[4-(4-Chloro-benzyl)-piperidine-1-sulfonyl]-N-thiazol-2-yl-benzenesulfonamide]
- IC50 [7, 9]: 100 to 500 nM

SMILES: O=S(=O)(Nc1nccs1)c1ccc(S(=O)(=O)N2CC(COc3cccc(Cl)c3)C2)cc1 [Compound 36, 4-[3-(3-Chloro-phenoxymethyl)-azetidine-1-sulfonyl]-N-thiazol-2-yl-benzenesulfonamide]
- IC50 [7]: 100 to 500 nM

SMILES: O=S(=O)(Nc1nccs1)c1ccc(S(=O)(=O)NC2CCCCCC2)cc1 [Compound 30, Benzene-1,4-disulfonic acid 1-cycloheptylamide 4-thiazol-2-ylamide]
- IC50 [7, 9]: 100 to 500 nM
